pKi: −log10 of the molar value. Structures can show the parent of a compound that is named as a salt.
Experiments:
[1] = target: T1, human 5HT1A receptor (Homo sapiens, UniProt P08908); experiment: [3H] 8-OH-DPAT displacement binding in CHO cells transfected with human 5HT1A receptor; conditions: [3H] 8-OH-DPAT 1.5 nM
T1 construct: expressed in transfected cells
T1 sequence (P08908 1-422): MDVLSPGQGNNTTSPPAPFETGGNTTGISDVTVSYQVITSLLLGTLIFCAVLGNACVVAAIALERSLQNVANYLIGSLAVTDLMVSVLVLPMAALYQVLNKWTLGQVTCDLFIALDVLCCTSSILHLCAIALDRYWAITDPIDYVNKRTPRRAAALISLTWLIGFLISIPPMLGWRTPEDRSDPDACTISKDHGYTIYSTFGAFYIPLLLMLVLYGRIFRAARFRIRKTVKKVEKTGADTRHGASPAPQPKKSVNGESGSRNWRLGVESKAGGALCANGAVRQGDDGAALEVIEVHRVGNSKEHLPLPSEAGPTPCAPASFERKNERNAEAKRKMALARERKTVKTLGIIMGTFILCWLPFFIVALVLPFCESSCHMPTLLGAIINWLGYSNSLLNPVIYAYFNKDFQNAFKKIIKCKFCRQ
Protocol: 8-OH-DPAT binding in CHO cells stabily transfected with human 5HT1A receptor. Stabily transfected CHO cells are grown in DMEM containing 10% heat inactivated FBS and non-essential amino acids. Cells are scraped off the plate, transferred to centrifuge tubes, and washed twice by centrifugation (2000 rpm for 10 min., 4° C.) in buffer (50 mM Tris pH 7.5). The resulting pellets are aliquoted and placed at −80° C. On the day of assay, the cells are thawed on ice and resuspended in buffer. The binding assay is performed in a 96 well microtiter plate in a total volume of 250 μL. […] Following a 30 minute incubation at room temperature, the reaction is terminated by the addition of ice cold buffer and rapid filtration through a GF/B filter presoaked for 30 minutes in 0.5% PEI.

[2] = target: T2, serotonin transporter (Rattus norvegicus, UniProt P31652); experiment: 3H-Paroxetine binding to rat frontal cortical membranes; conditions: read-out: SSRi % Inhibition (rat brain) at 0.1 μM
T2 construct: frontal cortical membranes prepared from male S.D. rats; from tissue; host or cells: frontal cortical membranes of male Sprague-Dawley rats
T2 sequence (P31652 whole entry): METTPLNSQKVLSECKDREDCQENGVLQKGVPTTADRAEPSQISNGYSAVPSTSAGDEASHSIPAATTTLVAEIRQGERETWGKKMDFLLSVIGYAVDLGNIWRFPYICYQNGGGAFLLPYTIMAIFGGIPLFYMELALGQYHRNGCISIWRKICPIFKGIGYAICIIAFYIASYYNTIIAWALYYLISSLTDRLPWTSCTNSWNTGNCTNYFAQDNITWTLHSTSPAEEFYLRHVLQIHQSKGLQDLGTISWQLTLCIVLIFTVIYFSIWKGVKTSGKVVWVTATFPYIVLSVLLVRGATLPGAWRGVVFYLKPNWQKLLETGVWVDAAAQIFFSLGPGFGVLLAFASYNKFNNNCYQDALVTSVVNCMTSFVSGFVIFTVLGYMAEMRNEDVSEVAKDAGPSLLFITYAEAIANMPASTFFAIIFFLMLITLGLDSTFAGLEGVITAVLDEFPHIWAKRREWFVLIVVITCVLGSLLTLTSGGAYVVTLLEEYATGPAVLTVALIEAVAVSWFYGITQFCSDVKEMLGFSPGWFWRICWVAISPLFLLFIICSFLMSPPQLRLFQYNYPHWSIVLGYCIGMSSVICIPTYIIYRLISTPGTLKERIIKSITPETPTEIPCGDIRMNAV
Protocol: ^3H-Paroxetine binding to assess affinity of drugs for the serotonin transporter
A protocol similar to that used by Cheetham et al. (Neuropharmacol. 32:737, 1993) was used to determine the affinity of compounds for the serotonin transporter. Briefly, frontal cortical membranes prepared from male S.D. rats were incubated with ^3H-paroxetine (0.1 nM) for 60 min at 25° C. All tubes also contained either vehicle, test compound (one to eight concentrations), or a saturating concentration of fluoxetine (10 μM) to define […]. All reactions are terminated by the addition of ice cold Tris buffer followed by rapid filtration using a Tom Tech filtration device to separate bound from free ^3H-paroxetine. Bound radioactivity was quantitated using a Wallac 1205 Beta Plate® counter. Results achieved are expressed below as % inhibition of Paroxetine binding at a given concentration.

[3] = target: T3, human dopamine D2 receptor (Homo sapiens, UniProt P14416); experiment: [3H]-Spiperone displacement binding in CHO cells transfected with human dopamine D2 receptor; conditions: [3H]-Spiperone 0.5 nM, CHO cell membranes
T3 construct: expressed in transfected cells
T3 sequence (P14416 whole entry): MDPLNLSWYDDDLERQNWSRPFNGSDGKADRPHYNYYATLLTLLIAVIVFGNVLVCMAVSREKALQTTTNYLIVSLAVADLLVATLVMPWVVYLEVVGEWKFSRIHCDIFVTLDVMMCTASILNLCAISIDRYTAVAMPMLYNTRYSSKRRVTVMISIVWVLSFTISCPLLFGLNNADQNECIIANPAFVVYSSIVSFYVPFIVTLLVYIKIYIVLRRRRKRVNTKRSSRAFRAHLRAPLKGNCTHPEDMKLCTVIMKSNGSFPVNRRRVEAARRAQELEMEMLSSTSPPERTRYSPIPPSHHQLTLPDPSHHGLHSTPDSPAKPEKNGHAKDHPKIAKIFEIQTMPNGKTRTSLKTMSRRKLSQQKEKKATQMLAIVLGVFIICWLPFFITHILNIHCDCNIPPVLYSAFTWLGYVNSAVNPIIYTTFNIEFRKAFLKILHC
Protocol: CHO cells expressing the human dopamine D2 receptor were cultured in suspension by expansion (every 3-4 days) in a serum free media to provide approximately 7.5×10^5 cells/ml. The cells were harvested by centrifugation (900×g for 10 min.), resuspended in half volume of 1×dulbecco PBS solution at pH 7.4, and after a further recentrifugation, the cell pellet was resuspended in 50 mM Tris.HCl (pH 7.4) containing 1.5 mM CaCl2, 5.0 mM EDTA, 5.0 mM KCl, 120 mM NaCl, 1.0 mM PMSF and 1.0 mg % leupeptin. The cells were homogenized, centrifuged at 40,000×g for 30 minutes and resuspended in fresh buffer (10 ml), and the process repeated twice. […] The binding assay is performed in a 96 well microtiter plate. 100 μl of buffer is added to the wells, and those receiving a displacer for nonspecific binding (NSB) assessment or test compounds receive 80 μl of incubation buffer. […] The reaction is initiated by the addition of 80 μl of the tissue membrane, and after 120 minutes at room temperature the wells are harvested using a Brandell® Harvester onto glass fiber filter presoaked in 0.1% polyethylimine.

Row | melting point [°C] | pKi [1] | inhibition at 0.1 µM [2] [%] | pKi [3] | SMILES
1 | 248 | – | – | – | O=[N+]([O-])c1ccc(OCC(O)CN2CCN(c3cccc4[nH]ccc34)CC2)cc1 (stereo not shown) (as salt: HCl) [Example 4, 1-[4-(1H-Indol-4-yl)-piperazin-1-yl]-3-(4-nitro-phenoxy)-propan-2-ol]
2 | 147 to 150 | – | – | – | OC(COc1cccc2[nH]ccc12)CN1CCN(c2cccc3[nH]ccc23)CC1 (stereo not shown) (as salt: fumaric acid salt) [Example 1, 1-(1H-Indol-4-yloxy)-3-[4-(1H-indol-4-yl)piperazin-1-yl]-propan-2-ol]
3 | 224 to 225 | – | – | – | OC(COc1ccc(Cl)cc1)CN1CCN(c2cccc3[nH]ccc23)CC1 (stereo not shown) (as salt: fumaric acid salt) [Example 2, 1-(4-Chloro-phenoxy)-3-[4-(1H-indol-4-yl)piperazin-1-yl]-propan-2-ol]
4 | 207 | – | – | – | OC(COc1ccccc1Cl)CN1CCN(c2cccc3[nH]ccc23)CC1 (stereo not shown) (as salt: fumaric acid salt) [Example 5, 1-(2-Chloro-phenoxy)-3-[4-(1H-indol-4-yl)piperazin-1-yl]-propan-2-ol]
5 | 234 to 235 | – | – | – | OC(COc1ccc(F)cc1)CN1CCN(c2cccc3[nH]ccc23)CC1 (stereo not shown) (as salt: fumaric acid salt) [Example 6, 1-(4-Fluoro-phenoxy)-3-[4-(1H-indol-4-yl)piperazin-1-yl]-propan-2-ol]
6 | 214 to 215 | – | – | – | OC(COc1ccccc1-c1ccccc1)CN1CCN(c2cccc3[nH]ccc23)CC1 (stereo not shown) (as salt: fumaric acid salt) [Example 8, 1-(Biphenyl-2-yloxy)-3-[4-(1H-indol-4-yl)piperazin-1-yl]-propan-2-ol]
7 | – | 8.22 | 32 | – | OC(COc1cccc2[nH]ccc12)CN1CCN(c2cccc3[nH]ccc23)CC1 (stereo not shown) [Example 1, 1-(1H-Indol-4-yloxy)-3-[4-(1H-indol-4-yl)piperazin-1-yl]-propan-2-ol]
8 | – | 8.12 | 13 | 7.47 | OC(COc1ccc(Cl)cc1)CN1CCN(c2cccc3[nH]ccc23)CC1 (stereo not shown) [Example 2, 1-(4-Chloro-phenoxy)-3-[4-(1H-indol-4-yl)piperazin-1-yl]-propan-2-ol]
9 | – | 8.06 | 15 | – | O=[N+]([O-])c1ccc(OCC(O)CN2CCN(c3cccc4[nH]ccc34)CC2)cc1 (stereo not shown) [Example 4, 1-[4-(1H-Indol-4-yl)-piperazin-1-yl]-3-(4-nitro-phenoxy)-propan-2-ol]
10 | – | 7.92 | 11 | 7.50 | OC(COc1ccccc1Cl)CN1CCN(c2cccc3[nH]ccc23)CC1 (stereo not shown) [Example 5, 1-(2-Chloro-phenoxy)-3-[4-(1H-indol-4-yl)piperazin-1-yl]-propan-2-ol]
11 | – | 7.98 | 0 | 7.98 | OC(COc1ccc(F)cc1)CN1CCN(c2cccc3[nH]ccc23)CC1 (stereo not shown) [Example 6, 1-(4-Fluoro-phenoxy)-3-[4-(1H-indol-4-yl)piperazin-1-yl]-propan-2-ol]
12 | – | 8.14 | 3 | – | NC(=O)c1cc2c(OCC(O)CN3CCN(c4cccc5[nH]ccc45)CC3)cccc2[nH]1 (stereo not shown) [Example 7, 4 {2-Hydroxy-3-[4-(1H-indol-4-yl)-piperazin-1-yl]propoxy}-1H-indole-2-carboxylic acid amide]
13 | – | 8.35 | 0 | – | OC(COc1ccccc1-c1ccccc1)CN1CCN(c2cccc3[nH]ccc23)CC1 (stereo not shown) [Example 8, 1-(Biphenyl-2-yloxy)-3-[4-(1H-indol-4-yl)piperazin-1-yl]-propan-2-ol]

Row | SMILES | melting point [°C] | pKi [1] | inhibition at 0.1 µM [2] [%] | pKi [3]
14 | COc1ccc(OCC(O)CN2CCN(c3cccc4[nH]ccc34)CC2)cc1 (stereo not shown) [Example 3, 1-[4-(1H-Indol-4-yl)-piperazin-1-yl]-3-(4-methoxy-phenoxy)-propan-2-ol] | – | 8.74 | 17 | –

From US6689792B2, “Antipsychotic indolyl derivatives” (Wyeth, priority 1998, dated 2004)
